Literature values as cited in article PMC9889658, “The structure of MadC from Clostridium maddingley reveals new insights into class I lanthipeptide cyclases” (Frontiers in Microbiology, 2023).

Biological target: NisB
Details: dependent on maturation state; ref Mavaro et al., 2011; read-out: binding affinity
From the text: This implies a higher relevance of the LP comp ...

Kd: 1 µM
Sequence: MSTKDFNLDLVSVSKKDSGASPRITSISLCTPGCKTGALMGCNMKTATCHCSIHVSK [unmodified prenisin, unmodified nisin precursor peptide]
